Assay results reported in paper PMC4385452 (Bioorganic & medicinal chemistry letters, 2015).

Experiments:
[1] = intrinsic clearance in liver microsomes; conditions: mouse
human CHT = molecular target: T1, human CHT (Homo sapiens, UniProt Q9GZV3, L531A/V532A); format: cell-based
T1 sequence (Q9GZV3 1-580 L531A/V532A): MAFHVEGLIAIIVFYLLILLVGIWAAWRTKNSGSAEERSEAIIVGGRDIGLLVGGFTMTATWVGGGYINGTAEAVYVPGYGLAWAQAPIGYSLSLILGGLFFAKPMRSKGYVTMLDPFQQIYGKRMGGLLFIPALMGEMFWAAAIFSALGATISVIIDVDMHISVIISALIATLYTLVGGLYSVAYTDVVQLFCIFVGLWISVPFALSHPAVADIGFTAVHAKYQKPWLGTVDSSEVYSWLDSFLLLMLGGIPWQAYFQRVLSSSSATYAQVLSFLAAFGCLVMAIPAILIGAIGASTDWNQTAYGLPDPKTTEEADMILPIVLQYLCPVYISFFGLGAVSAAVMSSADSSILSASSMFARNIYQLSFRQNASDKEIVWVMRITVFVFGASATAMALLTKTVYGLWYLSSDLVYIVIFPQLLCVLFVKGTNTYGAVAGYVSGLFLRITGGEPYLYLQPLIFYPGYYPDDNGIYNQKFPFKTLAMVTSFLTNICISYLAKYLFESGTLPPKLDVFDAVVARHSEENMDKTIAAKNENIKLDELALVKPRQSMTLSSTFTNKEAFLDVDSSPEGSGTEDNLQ

[2] = tested on: dopamine transporter (DAT); conditions: at the highest concentration tested; cited from earlier work
[3] = cassette tissue distribution study in mice; format: in vivo, mouse; conditions: 1.0 mg/kg per compound intraperitoneal cassette dose, n = 3

Row | Structure (SMILES) | CLint scaled [1] | CHT inhibitory activity (human CHT) | other results
1 | COc1ccc(C(=O)NCc2cc(C(C)C)no2)cc1OCCN1CCCCC1 [Compound 10q] | 167 mL/min/kg |  | 
2 | COc1ccc(C(=O)NCc2cc(C(C)C)no2)cc1OC1CCNCC1 [Compound 10l] |  | much less active | 
3 | COc1ccc(C(=O)NCc2ccc(C)s2)cc1OC1CCN(C(C)C)CC1 [Compound 10c] |  |  | activity at the high choline concentration (human CHT; high (10 μM) choline): modest inhibitory activity; activity at the low choline concentration (human CHT; low (100 nM) choline): inactive
4 | COc1ccc(C(=O)NCc2cc(C(C)C)no2)cc1OC1CCCCC1 [Compound 10o] |  | inactive | 
5 | COc1ccc(C(=O)NCc2csc(C)n2)cc1OC1CCN(C(C)C)CC1 [Compound 10b] | 979 mL/min/kg |  | 
6 | COc1ccc(C(=O)NCc2cc(C(C)C)no2)cc1OC1CCN(C)CC1 [Compound 10m, N-((3-isopropylisoxazol-5-yl)methyl)-4-methoxy-3-((1-methylpiperidin-4-yl)oxy)benzamide] | 43.7 mL/min/kg | equipotent with the isopropyl analog | DAT inhibitory activity [2]: did not show any inhibitory activity
7 | COc1ccc(C(=O)NCc2cc(C(C)C)no2)cc1OC1CCCC1 [Compound 10p] |  | inactive | 
8 | COc1ccc(C(=O)NCc2cc(C(C)C)no2)cc1OC1CCCN(C)C1 (stereo not drawn) [Compound 10n] |  | tolerated, but less active | 
9 | COc1ccc(C(=O)NCc2cc(C(C)C)no2)cc1OCCN1CCOCC1 [Compound 10r] |  |  | fold less active than the piperidine analog (human CHT; morpholine 10r versus piperidine 10q): ~ 10 fold
10 | COc1ccc(C(=O)NCc2cc(C(C)C)no2)cc1OC1CCN(C(C)C)CC1 [Compound 10e] | 781 mL/min/kg |  | Brain concentration [3]: BLQ
11 | CCn1nc(C)c(CNC(=O)c2ccc(OC)c(OC3CCN(C(C)C)CC3)c2)c1C [Compound 10f] | 29.9 mL/min/kg |  | Brain concentration [3]: BLQ
12 | COc1ccc(C(=O)NCc2cc(C(C)C)no2)cc1O [Compound 10v] |  | inactive | 
13 | COc1ccc(C(=O)NC(C)Cc2ccccn2)cc1OC1CCN(C(C)C)CC1 (stereo not drawn) [Compound 10k] | 106 mL/min/kg |  | 
